Legend:
[1] = molecular target: T1, human RORγt (Ligand Binding Domain) (Homo sapiens, UniProt P51449); assay: Fluorescence Polarization (FP) Assay; conditions: 100 nM human RORγt LBD, 25 nM TAMRA probe, values are activity range bounds
T1 construct: purchased Crelux (Planegg, Germany) batch no PC5032-1
T1 sequence (P51449 269-508 limits assumed): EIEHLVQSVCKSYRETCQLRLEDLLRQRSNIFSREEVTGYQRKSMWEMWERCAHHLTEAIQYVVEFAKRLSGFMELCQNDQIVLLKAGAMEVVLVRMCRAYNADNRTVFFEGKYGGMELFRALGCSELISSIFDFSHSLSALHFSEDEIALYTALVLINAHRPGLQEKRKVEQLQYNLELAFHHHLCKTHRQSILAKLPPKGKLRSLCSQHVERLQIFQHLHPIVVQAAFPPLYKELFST
Outline: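 Binding to the RORγt ligand-binding domain was followed by FP. Displacement of a TAMRA-tagged RORγt ligand tracer (910 g/mol) was measured, with DMSO-only wells as negative control.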

[2] = molecular target: T2, ligand binding domain of human RORγ (Homo sapiens, UniProt P51449); assay: RORγ Reporter Assay (Gal4); format: cell-based; conditions: for inhibition at 1 µM: HEK-293T, 1 μM test compound, HEK293t RORγ reporter cells, 24 hour, read-out: Gal4 activity range @ 1 μM (% inhibition); for Gal4 activity range @ 0.1 μM (% inhibition): RORγ Reporter Assay (Gal4), HEK293t reporter cells, compound at 0.1 μM, values are activity range bounds
T2 construct: host or cells: HEK293t
T2 sequence (P51449 269-508 limits assumed): T1 sequence (P51449 269-508 limits assumed)
Outline: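 HEK293t cells expressing Gal4 DBD–human RORγ LBD hybrid with Gal4-UAS firefly luciferase reporter; compounds at final 1,000 nM and 100 nM (0.1% DMSO), triplicate, medium with 10% charcoal-stripped FBS, 24 h at 37 °C. Luminescence read; percent reduction of RORγ activity calculated versus vehicle-only wells.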

female C57BL/6 mice = assay: Experimental Autoimmune Encephalomyelitis (EAE) Study; format: in vivo, mouse; conditions: 30 mg/kg, orally twice daily, from day of EAE induction, 25 days
male DBA/1J mice = assay: Collagen-Induced Arthritis (CIA) Study; format: in vivo, mouse; conditions: 30 mg/kg, orally twice daily, therapeutic setting (from day 27 until day 41)
From the text: Compounds disclosed herein have also been evaluated in two different mouse in vivo disease models: Experimental Autoimmune Encephalomyelitis (EAE) model (an animal model for multiple sclerosis), and Collagen-induced Arthritis (CIA) model (an animal model for rheumatoid arthritis).
Collagen-Induced Arthritis (CIA) Study
Collagen-induced arthritis is an animal model of rheumatoid arthritis used to evaluate the efficacy of test compounds. CIA was induced at Washington Biotechnology Inc. (Baltimore) in male DBA/1J mice (Jackson Laboratories) by subcutaneous injection at the base of the tail with 50 μl of a bovine collagen/complete Freund's adjuvant emulsion. After 21 days, the mice were further boosted by a further subcutaneous injection of 50 μl of a collagen/incomplete Freund's adjuvant emulsion. For treatment, compound or vehicle (2% DMSO, 10% HP-β-CD in MilliQ water) was given orally twice daily at various doses selected from 3, 10, 30 mg/kg, beginning at the day of CIA induction (Prophylactic setting), or after disease initiation (at day 27, therapeutic setting). Treatment lasted until day 41, and the animals were scored three times weekly. Each paw was scored and the sum of all four scores was recorded as the Arthritic Index (AI). […] The Arthritis Index for each treatment can be expressed as the mean score for each treatment group+/−S.E.M.

Row | SMILES | IC50 [1] [nM] | inhibition at 1 µM [2] [%] | Gal4 activity range @ 0.1 μM (% inhibition) [2] [% inhibition] | EAE clinical score (female C57BL/6 mice) | onset of EAE (female C57BL/6 mice) | disease severity (CIA, Arthritic Index) (male DBA/1J mice) | rate of disease development (CIA) (male DBA/1J mice)
1 | CS(=O)(=O)N1CCC(CNc2ncnc(N(Cc3ccc(C(F)(F)F)cc3)C3CC3)c2F)CC1 [Example A7, N4-cyclopropyl-5-fluoro-N6-[(1-methylsulfonyl-4-piperidyl)methyl]-N4-[[4-(trifluoromethyl)phenyl]methyl] pyrimidine-4,6-diamine] | < 500 | > 80 | >80 | significantly lower the clinical score | delay onset | significantly reduce disease severity | decrease rate of disease development
2 | CS(=O)(=O)N1CCC(C2(Nc3ncnc(N(Cc4ccc(C(F)(F)F)cc4)C4CC4)c3F)CC2)CC1 [Example A165, N6-cyclopropyl-5-fluoro-N4-[1-(1-methylsulfonyl-4-piperidyl)cyclopropyl]-N6-[[4-(trifluoromethyl)phenyl]methyl] pyrimidine-4,6-diamine] | < 500 | > 80 | >50 |  |  |  | 
3 | O=C(C1CC1)N1CCC(CNc2ncnc(N(Cc3ccc(C(F)(F)F)cc3)C3CC3)c2F)CC1 [Example A167, cyclopropyl-[4-[[[6-[cyclopropyl-[[4-(trifluoromethyl)phenyl]methyl]amino]-5-fluoro-pyrimidin-4-yl]amino]methyl]-1-piperidyl]methanone] | < 500 | > 80 | >50 |  |  |  | 
4 | NC(=O)Cc1ccc(CNc2ncnc(N(Cc3ccc(C(F)(F)F)cc3O)C3CC3)c2F)cc1 [Example A168, 2-[4-[[[6-[cyclopropyl-[[2-hydroxy-4-(trifluoromethyl)phenyl]methyl]amino]-5-fluoro-pyrimidin-4-yl]amino]methyl]phenyl]acetamide] | < 500 | > 80 | >50 |  |  |  | 
5 | CS(=O)(=O)N1CCC2(CC1)CC2Nc1ncnc(N(Cc2ccc(C(F)(F)F)cc2)C2CC2)c1F (stereo not shown) [Example A169, N6-cyclopropyl-5-fluoro-N4-(6-methylsulfonyl-6-azaspiro[2.5]octan-2-yl)-N6-[[4-(trifluoromethyl)phenyl]methyl] pyrimidine-4,6-diamine] | < 500 | > 80 | >80 |  |  |  | 
6 | NC(=O)Cc1ccc(CNc2ncnc(N(Cc3ccnc(C(F)(F)F)c3)C3CC3)c2F)cc1 [Example A170, 2-[4-[[[6-[cyclopropyl-[[2-(trifluoromethyl)-4-pyridyl]methyl]amino]-5-fluoro-pyrimidin-4-yl]amino]methyl]phenyl]acetamide] | < 500 | > 50 | >20 |  |  |  | 
7 | CS(=O)(=O)N1[C@@H]2CC[C@H]1CC(CNc1ncnc(N(Cc3ccc(C(F)(F)F)cc3)C3CC3)c1F)C2 (stereo partly drawn) [Example A171, N6-cyclopropyl-5-fluoro-N4-[[(1S,5R)-8-methylsulfonyl-8-azabicyclo[3.2.1]octan-3-yl]methyl]-N6-[[4-(trifluoromethyl)phenyl]methyl] pyrimidine-4,6-diamine] | < 500 | > 80 | >80 |  |  |  | 
8 | CS(=O)(=O)N1CCC2(CC2Nc2ncnc(N(Cc3ccc(C(F)(F)F)cc3)C3CC3)c2F)C1 (stereo not shown) [Example A172, N6-cyclopropyl-5-fluoro-N4-(6-methylsulfonyl-6-azaspiro[2.4]heptan-2-yl)-N6-[[4-(trifluoromethyl)phenyl]methyl] pyrimidine-4,6-diamine] | < 2000 | > 80 | >20 |  |  |  | 
9 | CS(=O)(=O)N1CC2CC2(CNc2ncnc(N(Cc3ccc(C(F)(F)F)cc3)C3CC3)c2F)C1 (stereo not shown) [Example A174, N6-cyclopropyl-5-fluoro-N4-[(3-methylsulfonyl-3-azabicyclo[3.1.0]hexan-5-yl)methyl]-N6-[[4-(trifluoromethyl)phenyl]methyl] pyrimidine-4,6-diamine] | < 500 | > 80 | >20 |  |  |  | 
10 | CS(=O)(=O)N1CC2CCC(Nc3ncnc(N(Cc4ccc(C(F)(F)F)cc4)C4CC4)c3F)C2C1 (stereo not shown) [Example A175, N6-cyclopropyl-5-fluoro-N4-(2-methylsulfonyl-3,3a,4,5,6,6a-hexahydro-1H-cyclopenta[c]pyrrol-4-yl)-N6-[[4-(trifluoromethyl)phenyl]methyl] pyrimidine-4,6-diamine] | < 500 | > 80 | >50 |  |  |  | 
11 | NC(=O)Cc1ccc(CNc2ncnc(N(Cc3cccc(C(F)(F)F)n3)C3CC3)c2F)cc1 [Example A176, 2-[4-[[[6-[cyclopropyl-[[6-(trifluoromethyl)-2-pyridyl]methyl]amino]-5-fluoro-pyrimidin-4-yl]amino]methyl]phenyl]acetamide] | < 500 | > 50 | >0 |  |  |  | 
12 | NC(=O)Cc1ccc(CNc2ncnc(N(Cc3cc(C(F)(F)F)ccn3)C3CC3)c2F)cc1 [Example A178, 2-[4-[[[6-[cyclopropyl-[[4-(trifluoromethyl)-2-pyridyl]methyl]amino]-5-fluoro-pyrimidin-4-yl]amino]methyl]phenyl]acetamide] | < 500 | > 20 | >0 |  |  |  | 
13 | NC(=O)Cc1ccc(CNc2ncnc(N(Cc3ccc(C(F)F)nc3)C3CC3)c2F)cc1 [Example A179, 2-[4-[[[6-[cyclopropyl-[[6-(difluoromethyl)-3-pyridyl]methyl]amino]-5-fluoro-pyrimidin-4-yl]amino]methyl]phenyl]acetamide] | < 500 | > 80 | >20 |  |  |  | 
14 | O=C(O)C[C@@H](CCc1ccccc1)Nc1ncnc(N(Cc2ccc(C(F)(F)F)cc2)C2CC2)c1F [Example A181, (3R)-3-[[6-[cyclopropyl-[[4-(trifluoromethyl)phenyl]methyl]amino]-5-fluoro-pyrimidin-4-yl]amino]-5-phenyl-pentanoic acid] | < 500 | > 80 | >0 |  |  |  | 
15 | NC(=O)Cc1ccc(Cn2ccc3c(N(Cc4ccc(C(F)(F)F)cc4)C4CC4)ncnc32)cc1 [Example I1, 2-(4-((4-(cyclopropyl (4-(trifluoromethyl)benzyl)amino)-7H-pyrrolo[2,3-d]pyrimidin-7-yl)methyl)phenyl)acetamide] | < 500 | > 80 | >80 |  |  |  | 
16 | Fc1c(NCc2ccc(Cc3nnn[nH]3)cc2)ncnc1N(Cc1ccc(C(F)(F)F)cc1)C1CC1 [Example T1, N6-cyclopropyl-5-fluoro-N4-[[4-(1H-tetrazol-5-ylmethyl)phenyl]methyl]-N6-[[4-(trifluoromethyl)phenyl]methyl] pyrimidine-4,6-diamine] | < 500 | > 80 | >50 |  |  |  | 
17 | O=S(=O)(CC(F)(F)F)NC1CCC(CNc2ncnc(N(Cc3ccc(C(F)(F)F)cc3)C3CC3)c2F)CC1 (stereo not shown) [x, N-[4-[[[6-[cyclopropyl-[[4-(trifluoromethyl)phenyl]methyl]amino]-5-fluoro-pyrimidin-4-yl]amino]methyl]cyclohexyl]-2,2,2-trifluoro-ethanesulfonamide] | < 500 | > 50 | >20 |  |  |  | 

Source: patent US10683293B2, “Optionally fused heterocyclyl-substituted derivatives of pyrimidine useful for the treatment of inflammatory, metabolic, oncologic and autoimmune diseases” (NUEVOLUTION A/S, priority 2014, dated 2020)
